What all share (assay type): binding
Test [1] has as its target T1, PnPEPCK (Polaromonas naphthalenivorans, UniProt A1VIE9).
T1 construct: gene pckG; full length, 622 residues, N-terminal His6-SUMO tag cleaved off with no additional amino acids; codon-optimised gene in pESUMO-Star; E. coli BL21(DE3); EC 4.1.1.32
As to the kind of experiment: X-ray crystal structure.

Test [2] concerns the target T1, PnPEPCK. In words: differential scanning fluorimetry (SYPRO Orange). Particulars: reference is the Mn-only enzyme, 21.4 μM enzyme, 1 mM MnCl2, 25 mM HEPES pH 7.4. From the text:
differential scanning fluorimetry (SYPRO Orange) on PnPEPCK

A further test deals with T2, rcPEPCK (Rattus norvegicus, UniProt P07379).
T2 construct: gene Pck1; full length, 622 residues, SUMO tag removed by SUMO protease; E. coli BL21(DE3)
T2 sequence (P07379 1-622): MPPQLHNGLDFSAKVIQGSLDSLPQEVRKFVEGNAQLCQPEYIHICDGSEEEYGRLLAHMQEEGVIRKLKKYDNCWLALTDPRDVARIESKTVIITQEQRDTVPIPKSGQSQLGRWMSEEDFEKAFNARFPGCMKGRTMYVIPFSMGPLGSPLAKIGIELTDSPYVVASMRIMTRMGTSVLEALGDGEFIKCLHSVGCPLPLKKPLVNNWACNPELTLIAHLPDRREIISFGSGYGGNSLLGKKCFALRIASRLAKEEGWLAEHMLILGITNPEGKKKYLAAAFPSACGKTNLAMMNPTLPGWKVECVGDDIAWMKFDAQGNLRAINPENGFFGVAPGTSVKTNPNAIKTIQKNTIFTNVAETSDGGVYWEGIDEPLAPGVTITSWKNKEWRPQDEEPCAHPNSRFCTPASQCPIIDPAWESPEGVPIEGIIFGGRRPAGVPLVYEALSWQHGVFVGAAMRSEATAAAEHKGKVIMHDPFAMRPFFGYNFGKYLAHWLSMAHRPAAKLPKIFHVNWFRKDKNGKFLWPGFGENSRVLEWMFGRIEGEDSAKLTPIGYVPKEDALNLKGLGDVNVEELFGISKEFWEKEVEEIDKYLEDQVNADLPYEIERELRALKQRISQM
As to the kind of experiment: differential scanning fluorimetry (SYPRO Orange). The note with it: reference is the Mn-only enzyme, 21.4 μM enzyme, 1 mM MnCl2, 25 mM HEPES pH 7.4. From the text:
differential scanning fluorimetry (SYPRO Orange) on rcPEPCK
For orientation: Differential scanning fluorimetry follows unfolding on heating by fluorescence.

Setting [3] is: absolute TM of Mn-GTP complex, 214 μM GTP.
Setting [4] is: absolute TM of Mn-oxalate complex, 214 μM oxalate.

T1 sequence (A1VIE9 entry or part of it): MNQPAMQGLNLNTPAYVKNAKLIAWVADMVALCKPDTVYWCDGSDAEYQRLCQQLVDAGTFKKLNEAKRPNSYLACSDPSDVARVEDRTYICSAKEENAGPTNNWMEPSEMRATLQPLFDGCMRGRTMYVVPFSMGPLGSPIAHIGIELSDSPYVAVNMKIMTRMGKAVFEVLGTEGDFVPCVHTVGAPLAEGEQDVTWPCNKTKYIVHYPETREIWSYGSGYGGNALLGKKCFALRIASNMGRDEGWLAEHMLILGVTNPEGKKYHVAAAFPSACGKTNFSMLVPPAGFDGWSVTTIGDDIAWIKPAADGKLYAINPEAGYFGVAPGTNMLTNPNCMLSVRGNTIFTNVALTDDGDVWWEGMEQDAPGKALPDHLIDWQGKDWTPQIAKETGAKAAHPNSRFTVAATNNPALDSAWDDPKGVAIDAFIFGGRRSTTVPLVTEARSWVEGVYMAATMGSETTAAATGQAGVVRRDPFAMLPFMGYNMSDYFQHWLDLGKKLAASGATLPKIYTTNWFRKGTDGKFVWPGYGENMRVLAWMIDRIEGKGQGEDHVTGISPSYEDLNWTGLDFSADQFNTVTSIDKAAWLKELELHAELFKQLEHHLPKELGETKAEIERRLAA

With `Nc1nc2c(ncn2[C@@H]2O[C@H](COP(=O)(O)OP(=O)(O)O)[C@@H](O)[C@H]2O)c(=O)[nH]1` [GDP], the X-ray crystal structure entry on PnPEPCK [1] (ternary complex with PGA, closed) was “All three ternary complexes (βSP‐GTP, oxalate‐GTP, and PGA‐GDP)”.

For the compound `Nc1nc2c(ncn2[C@@H]2O[C@H](COP(=O)(O)OP(=O)(O)OP(=O)(O)O)[C@@H](O)[C@H]2O)c(=O)[nH]1` [GTP], at PnPEPCK [2] (setting [3]), the “PnPEPCK / T M (°C)” value was determined as 59.5 °C. Moreover, the “rcPEPCK / T M (°C)” value at rcPEPCK (setting [3]) amounted to 61.4 °C. At PnPEPCK [1] (ternary complexes with βSP or oxalate, closed), the X-ray crystal structure entry is “All three ternary complexes (βSP‐GTP, oxalate‐GTP, and PGA‐GDP)”. Take `C=C(OP(=O)(O)O)C(=O)O` [PEP]: the X-ray crystal structure result at PnPEPCK [1] (binary Mn2+ complex, open, P2_12_12_1 and C222_1 crystals) is given as “both with PEP bound at the active site”. For the compound `O=C(O)COP(=O)(O)O` [PGA], the X-ray crystal structure entry on PnPEPCK [1] (PEP analogue, ternary complex with GDP, closed) was “All three ternary complexes (βSP‐GTP, oxalate‐GTP, and PGA‐GDP)”. In the case of `O=C(O)C(=O)O` [oxalate], the “PnPEPCK / T M (°C)” value on PnPEPCK [2] (setting [4]) worked out at 46.3 °C. At rcPEPCK (setting [4]), the “rcPEPCK / T M (°C)” value worked out at 54.4 °C. For the same compound, the X-ray crystal structure entry on PnPEPCK [1] (enol-pyruvate mimic, ternary complex with GTP, closed) was “All three ternary complexes (βSP‐GTP, oxalate‐GTP, and PGA‐GDP)”. As to `O=C(O)C(=O)CS(=O)(=O)O` [βSP], the X-ray crystal structure entry at PnPEPCK [1] (OAA analogue, binary Mn2+ complex and ternary complex with GTP, closed) is “All three ternary complexes (βSP‐GTP, oxalate‐GTP, and PGA‐GDP) in addition to βSP alone”.

The values are drawn from article PMC12529880, “Structural mechanisms for cold‐adapted activity of phosphoenolpyruvate carboxykinase” (Protein Science : A Publication of the Protein Society, 2025).
